Here are results for 1 compound from article PMC10286312, “Elimination Resistance: Characterizing Multi-compartment Toxicokinetics of the Neonicotinoid Thiacloprid in the Amphipod Gammarus pulex Using Bioconcentration and Receptor-Binding Assays” (Environmental Science & Technology, 2023).

In the test the target is T1, nAChRs (nicotinic acetylcholine receptors) in G. pulex membrane protein extract.
T1 construct: gene nAChR alpha; native whole-animal crude membrane protein pellet (43,000g)
Kind of test: equilibrium binding to membrane protein, unlabelled ligand, ultracentrifugation, online-SPE LC-HRMS/MS. Particulars: 10 mM Tris-HCl pH 7.4, 23 °C, 2 h; one-site specific binding model; no displacement control described; read-out: best fit. On the set-up: species or system Gammarus pulex. From the text: equilibrium binding to membrane protein, unlabelled ligand, ultracentrifugation, online-SPE LC-HRMS/MS on nAChRs (nicotinic acetylcholine receptors) in G. pulex membrane protein extract

For the compound `N#C/N=C1\SCCN1Cc1ccc(Cl)nc1` [thiacloprid], the Kd was determined as 0.41 nM.
